From patent US9469650B2, “Melampomagnolide B derivatives” (BOARD OF TRUSTEES OF THE UNIVERSITY OF ARKANSAS, priority 2013, dated 2016)
Where two headings read alike, the source gives them in different places.

What was measured:
[1] = tested on: CCRF-CEM
[2] = tested on: K-562
[3] = tested on: MOLT-4
[4] = tested on: SR
[5] = tested on: A549/ATCC
[6] = tested on: NCI-H226
[7] = tested on: NCI-H23
[8] = tested on: NCI-H322M
[9] = tested on: NCI-H460
[10] = tested on: NCI-H522
[11] = tested on: HCC-2998
[12] = tested on: HCT-15
[13] = tested on: HT29
[14] = tested on: SW-620
[15] = tested on: SF-268
[16] = tested on: SF-295
[17] = tested on: SNB-19
[18] = tested on: SNB-75
[19] = tested on: U251
[20] = tested on: LOX IMVI
[21] = tested on: MALME-3M
[22] = tested on: M14
[23] = tested on: MDA-MB-435
[24] = tested on: SK-MEL-2
[25] = tested on: SK-MEL-28
[26] = tested on: SK-MEL-5
[27] = tested on: UACC-62
[28] = tested on: IGROV1
[29] = tested on: OVCAR-5
[30] = tested on: OVCAR-8
[31] = tested on: SK-OV-3
[32] = tested on: 786-0
[33] = tested on: A498
[34] = tested on: CAKI-1
[35] = tested on: RXF 393
[36] = tested on: SN12C
[37] = tested on: TK-10
[38] = tested on: PC-3
[39] = tested on: DU-145
[40] = tested on: MCF7
[41] = tested on: MDA-MB-231/ATCC
[42] = tested on: HS 578T
[43] = tested on: T-47D
[44] = tested on: MALME-3M; experiment: panel of 60 human tumor cell lines, growth inhibition (Melanoma)
[45] = tested on: RPMI-8226; experiment: panel of 60 human tumor cell lines, growth inhibition (Leukemia); details: for Percent Growth / GI50 / TGI: RPMI-8226
[46] = tested on: OVCAR-4; experiment: panel of 60 human tumor cell lines, growth inhibition (Ovarian Cancer); assay type: cell-based; details: Homo sapiens, OVCAR-4, NCI five dose
[47] = tested on: panel of 60 human tumor cell lines; experiment: panel of 60 human tumor cell lines, whole panel or sub-panel (single concentration screen, summaries); assay type: cell-based; details: single concentration of 10^−5 M, read-out: growth inhibition in at least eight human cancer cell lines from the panel
[48] = tested on: HL-60(TB); experiment: cells; details: Homo sapiens
[49] = tested on: AML 052308 cells
From the text: Derivatives were screened for antileukemic activity against AML cells in culture (See FIGS. 1-7).

[50] = MALME-3M, Log10 Concentration −4.0
[51] = MALME-3M, Log10 Concentration −5.0
[52] = MALME-3M, Log10 Concentration −6.0
[53] = MALME-3M, Log10 Concentration −7.0
[54] = MALME-3M, Log10 Concentration −8.0

C=C1C(=O)O[C@H]2[C@H]1CC/C(COC(=O)NCCN1CCCCC1)=C\CC[C@@]1(C)O[C@@H]21 [JVM 2-13]
CC50 [1]: > 100 µM
CC50 [2]: > 100 µM
CC50 [3]: > 100 µM
CC50 [4]: > 100 µM
CC50 [5]: 98.5 µM
CC50 [6]: > 100 µM
CC50 [7]: 65.5 µM
CC50 [8]: 61.1 µM
CC50 [9]: 78.1 µM
CC50 [10]: 7.25 µM
CC50 [11]: 70.1 µM
CC50 [12]: 50.7 µM
CC50 [13]: 50.4 µM
CC50 [14]: 50.3 µM
CC50 [15]: 60.2 µM
CC50 [16]: > 100 µM
CC50 [17]: 73.1 µM
CC50 [18]: 48.8 µM
CC50 [19]: 64.1 µM
CC50 [20]: 56.2 µM
CC50 [21]: 50.6 µM
CC50 [22]: 55.1 µM
CC50 [23]: 43.8 µM
CC50 [24]: 69.7 µM
CC50 [25]: 47.2 µM
CC50 [26]: 58.3 µM
CC50 [27]: 50.1 µM
CC50 [28]: 81.2 µM
CC50 [29]: 55.2 µM
CC50 [30]: 58.4 µM
CC50 [31]: > 100 µM
CC50 [32]: 56.2 µM
CC50 [33]: 53.1 µM
CC50 [34]: 40.4 µM
CC50 [35]: 37.3 µM
CC50 [36]: 58.5 µM
CC50 [37]: 35.8 µM
CC50 [38]: 70.9 µM
CC50 [39]: 42 µM
CC50 [40]: 62.5 µM
CC50 [41]: 56.5 µM
CC50 [42]: > 100 µM
CC50 [43]: 62.4 µM
GI50 ([44]; MALME-3M): 1.47 µM
TGI ([44]; MALME-3M): 4.6e-06 M
Percent Growth [44, 50]: −57%
Percent Growth [44, 51]: −34%
Percent Growth [44, 52]: 67%
Percent Growth [44, 53]: 99%
Percent Growth [44, 54]: 103%

C=C1C(=O)O[C@H]2[C@H]1CC/C(COC(=O)NC)=C\CC[C@@]1(C)O[C@@H]21 [JVM 2-57]
CC50 [1]: 76.3 µM
CC50 [2]: > 100 µM
CC50 [3]: > 100 µM
CC50 [4]: > 100 µM
CC50 [5]: 57.7 µM
CC50 [6]: 96.1 µM
CC50 [7]: 66.1 µM
CC50 [8]: > 100 µM
CC50 [9]: 78 µM
CC50 [10]: 6.85 µM
CC50 [11]: 61.6 µM
CC50 [12]: 41.8 µM
CC50 [13]: 57 µM
CC50 [14]: 44.7 µM
CC50 [15]: 68.6 µM
CC50 [16]: > 100 µM
CC50 [17]: > 100 µM
CC50 [18]: > 100 µM
CC50 [19]: 53 µM
CC50 [20]: 43.2 µM
CC50 [21]: 55 µM
CC50 [22]: 66.7 µM
CC50 [23]: 53.1 µM
CC50 [24]: 69 µM
CC50 [25]: 52 µM
CC50 [26]: 66 µM
CC50 [27]: 50.5 µM
CC50 [28]: 77 µM
CC50 [29]: 44.3 µM
CC50 [30]: 57.2 µM
CC50 [31]: > 100 µM
CC50 [32]: 49.6 µM
CC50 [33]: 47.4 µM
CC50 [34]: 36.6 µM
CC50 [35]: 44.1 µM
CC50 [36]: 78.1 µM
CC50 [37]: 31.8 µM
CC50 [38]: 71.1 µM
CC50 [39]: 39.3 µM
CC50 [40]: 47.7 µM
CC50 [41]: 56.2 µM
CC50 [42]: > 100 µM
CC50 [43]: 40.2 µM
Percent Growth [44, 50]: −76%
Percent Growth [44, 51]: 25%
Percent Growth [44, 52]: 94%
Percent Growth [44, 53]: 95%
Percent Growth [44, 54]: 95%
GI50 ([44]; MALME-3M, NCI five dose): 4.38 µM
TGI ([44]; MALME-3M, NCI five dose): 1.77E−5
Percent Growth ([45]; Log10 Concentration −4.0): −53%
Percent Growth ([45]; Log10 Concentration −5.0): 7%
Percent Growth ([45]; Log10 Concentration −6.0): 87%
Percent Growth ([45]; Log10 Concentration −7.0): 94%
Percent Growth ([45]; Log10 Concentration −8.0): 101%
GI50 ([45]; NCI five dose): 2.89 µM
TGI ([45]; NCI five dose): 1.30E−5

C=C1C(=O)O[C@H]2[C@H]1CC/C(COC(=S)n1ccnc1)=C\CC[C@@]1(C)O[C@@H]21 [JVM 66]
GI50 [46]: 19.8 µM
IC (TGI) [46]: 90.9 µM
CC50 ([46]; read-out: LC50 (the source's name)): > 100 µM
inhibition at 10 µM [47]: > 60%
GI50 ([48]; HL-60): 4.05 µM
CC50 ([48]; HL-60, read-out: LC50): 69.5 µM
IC (TGI) ([48]; HL-60, read-out: TGI): 16.2 µM
cytotoxicity compared to MMB [49]: more potent than MMB
fold more cytotoxic than MMB [49]: about 6 fold
fold more potent than parthenolide ([49]; AML 052308 cells): 3 fold
GI50 ([44]; Homo sapiens, Malme-3M): 14.5 µM
CC50 ([44]; Homo sapiens, Malme-3M, read-out: LC50): > 100 µM
Percent Growth [44, 50]: −32%
Percent Growth [44, 51]: 66%
Percent Growth [44, 52]: 107%
Percent Growth [44, 53]: 95%
Percent Growth [44, 54]: 94%
TGI ([44]; MALME-3M, NCI five dose): 4.74E−5
GI50 ([45]; Homo sapiens): 11 µM
CC50 ([45]; Homo sapiens, RPMI-8226, read-out: LC50): > 100 µM
Percent Growth ([45]; Log10 Concentration −4.0): −31%
Percent Growth ([45]; Log10 Concentration −5.0): 53%
Percent Growth ([45]; Log10 Concentration −6.0): 102%
Percent Growth ([45]; Log10 Concentration −7.0): 103%
Percent Growth ([45]; Log10 Concentration −8.0): 103%
TGI ([45]; NCI five dose): 4.29E−5

C=C1C(=O)O[C@H]2[C@H]1CC/C(COC(=O)N1CCN(C)CC1)=C\CC[C@@]1(C)O[C@@H]21 [JVM 2-44]
CC50 [1]: > 100 µM
CC50 [2]: > 100 µM
CC50 [3]: > 100 µM
CC50 [4]: > 100 µM
CC50 [5]: > 100 µM
CC50 [6]: > 100 µM
CC50 [7]: 82.4 µM
CC50 [8]: > 100 µM
CC50 [9]: > 100 µM
CC50 [10]: 8.2 µM
CC50 [11]: 71.9 µM
CC50 [12]: 56.6 µM
CC50 [13]: 62 µM
CC50 [14]: 58.3 µM
CC50 [15]: 75.7 µM
CC50 [16]: > 100 µM
CC50 [17]: > 100 µM
CC50 [18]: 61.2 µM
CC50 [19]: 88.7 µM
CC50 [20]: 55.9 µM
CC50 [21]: 65.4 µM
CC50 [22]: 69.9 µM
CC50 [23]: 57.5 µM
CC50 [24]: 75.3 µM
CC50 [25]: 56.5 µM
CC50 [26]: 58.7 µM
CC50 [27]: 54.1 µM
CC50 [28]: 76 µM
CC50 [29]: 68.6 µM
CC50 [30]: 80.6 µM
CC50 [31]: > 100 µM
CC50 [32]: 72.3 µM
CC50 [33]: > 100 µM
CC50 [34]: 42.8 µM
CC50 [35]: 48.6 µM
CC50 [36]: 69.7 µM
CC50 [37]: 41.6 µM
CC50 [38]: > 100 µM
CC50 [39]: 48.7 µM
CC50 [40]: 60.1 µM
CC50 [41]: 67 µM
CC50 [42]: > 100 µM
CC50 [43]: 82.3 µM
GI50 ([44]; MALME-3M): 3.33 µM
TGI ([44]; MALME-3M): 1.20E−5
Mean Optical Densities [44, 50]: 0.168
Percent Growth [44, 50]: −63%
Mean Optical Densities [44, 51]: 0.461
Percent Growth [44, 51]: 5%
Mean Optical Densities [44, 52]: 0.705
Percent Growth [44, 52]: 99%
Mean Optical Densities [44, 53]: 0.680
Percent Growth [44, 53]: 89%
Mean Optical Densities [44, 54]: 0.702
Percent Growth [44, 54]: 98%
